Assay results as given in ChEMBL document CHEMBL3217528, “Bicyclic imidazole-4-one derivatives: a new class of antagonists for the orphan G protein-coupled receptors GPR18 and GPR55” (Medchemcomm, 2014).

Columns and labels:
[1] = molecular target: T1, N-arachidonyl glycine receptor (Homo sapiens) (UniProt Q14330); experiment: Agonist activity at human GPR18 expressed in CHO cells assessed as induction of beta-arrestin recruitment by beta-galactosidase enzyme fragment complementation method relative to delta9-THC; type: cell-based; parameters: concentration or dose not given beside the values
T1 sequence (whole entry): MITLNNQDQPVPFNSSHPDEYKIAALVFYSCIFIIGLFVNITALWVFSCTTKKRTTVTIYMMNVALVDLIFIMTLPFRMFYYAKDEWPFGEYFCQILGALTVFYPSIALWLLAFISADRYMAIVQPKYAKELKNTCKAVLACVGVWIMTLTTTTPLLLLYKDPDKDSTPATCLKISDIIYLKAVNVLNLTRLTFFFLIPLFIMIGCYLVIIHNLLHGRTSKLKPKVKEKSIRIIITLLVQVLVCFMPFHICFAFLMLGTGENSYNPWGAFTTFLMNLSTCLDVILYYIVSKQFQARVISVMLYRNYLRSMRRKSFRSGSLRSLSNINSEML

Cannabinoid receptor 2 [2] = molecular target: T2, Cannabinoid receptor 2 (Homo sapiens, UniProt P34972); experiment: Displacement of [3H]CP55,940 from human recombinant CB2 receptor expressed in HEK293 cells; type: cell-based
Cannabinoid receptor 1 [3] = molecular target: Cannabinoid receptor 1 (Rattus norvegicus, UniProt P20272); experiment: Displacement of [3H]CP55,940 from CB1 receptor in rat brain cortical membranes; type: cell membranes
Cannabinoid receptor 2 [4] = molecular target: T2, Cannabinoid receptor 2; experiment: Displacement of [3H]CP55,940 from human recombinant CB2 receptor expressed in HEK293 cells at 10 uM; type: cell-based
[5] = molecular target: T3, G-protein coupled receptor 55 (Homo sapiens, UniProt Q9Y2T6); experiment: Antagonist activity against human GPR55 expressed in CHO cells assessed as reduction in LPI-induced beta-arrestin recruitment by beta-galactosidase enzyme fragment complementation method; type: cell-based
[6] = molecular target: T3, G-protein coupled receptor 55; experiment: Antagonist activity against human GPR55 expressed in CHO cells assessed as reduction in LPI-induced beta-arrestin recruitment at 10 uM by beta-galactosidase enzyme fragment complementation method; type: cell-based
[7] = molecular target: T4, N-arachidonyl glycine receptor (Homo sapiens, UniProt Q14330); experiment: Antagonist activity against human GPR18 expressed in CHO cells assessed as reduction in delta9-THC-induced beta-arrestin recruitment by beta-galactosidase enzyme fragment complementation method; type: cell-based
T4 sequence (Q14330 whole entry): T1 sequence (whole entry)

Cannabinoid receptor 1 [8] = molecular target: T5, Cannabinoid receptor 1 (Homo sapiens, UniProt P21554); experiment: Displacement of [3H]CP55,940 from human recombinant CB1 receptor expressed in CHO-K1 cells; type: cell-based
[9] = molecular target: Cannabinoid receptor 1 (Rattus norvegicus) (UniProt P20272); experiment: Displacement of [3H]CP55,940 from CB1 receptor in rat brain cortical membranes at 10 uM; type: cell membranes
Cannabinoid receptor 1 [10] = molecular target: T5, Cannabinoid receptor 1; experiment: Displacement of [3H]CP55,940 from human recombinant CB1 receptor expressed in CHO-K1 cells at 10 uM; type: cell-based
[11] = molecular target: T3, G-protein coupled receptor 55; experiment: Agonist activity at human GPR55 expressed in CHO cells assessed as induction of LPI-induced beta-arrestin recruitment by beta-galactosidase enzyme fragment complementation method relative to LPI; type: cell-based; parameters: concentration or dose not given beside the values
[12] = molecular target: T1, N-arachidonyl glycine receptor (Homo sapiens); experiment: Antagonist activity against human GPR18 expressed in CHO cells assessed as reduction in delta9-THC-induced beta-arrestin recruitment at 10 uM by beta-galactosidase enzyme fragment complementation method; type: cell-based

T3 sequence (Q9Y2T6 whole entry, the tested form may be a part): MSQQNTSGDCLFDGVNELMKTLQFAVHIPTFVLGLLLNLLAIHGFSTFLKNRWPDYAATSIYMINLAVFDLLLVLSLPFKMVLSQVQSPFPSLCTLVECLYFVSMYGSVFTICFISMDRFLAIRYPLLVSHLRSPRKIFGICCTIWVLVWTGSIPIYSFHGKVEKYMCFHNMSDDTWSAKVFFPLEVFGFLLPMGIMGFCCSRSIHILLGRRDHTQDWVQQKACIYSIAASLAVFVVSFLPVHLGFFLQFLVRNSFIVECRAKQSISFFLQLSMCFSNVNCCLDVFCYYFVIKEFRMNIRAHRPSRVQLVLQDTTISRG
T2 sequence (P34972 whole entry): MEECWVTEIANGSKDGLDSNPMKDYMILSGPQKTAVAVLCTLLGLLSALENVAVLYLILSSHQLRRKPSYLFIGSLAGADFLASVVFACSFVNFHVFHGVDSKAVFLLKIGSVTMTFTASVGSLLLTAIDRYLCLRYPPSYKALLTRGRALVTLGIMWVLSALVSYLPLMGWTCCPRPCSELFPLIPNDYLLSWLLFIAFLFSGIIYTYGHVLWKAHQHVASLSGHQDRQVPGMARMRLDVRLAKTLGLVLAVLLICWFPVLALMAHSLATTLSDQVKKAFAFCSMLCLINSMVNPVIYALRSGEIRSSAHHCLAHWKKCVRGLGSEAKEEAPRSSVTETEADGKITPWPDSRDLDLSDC
T5 sequence (P21554 whole entry): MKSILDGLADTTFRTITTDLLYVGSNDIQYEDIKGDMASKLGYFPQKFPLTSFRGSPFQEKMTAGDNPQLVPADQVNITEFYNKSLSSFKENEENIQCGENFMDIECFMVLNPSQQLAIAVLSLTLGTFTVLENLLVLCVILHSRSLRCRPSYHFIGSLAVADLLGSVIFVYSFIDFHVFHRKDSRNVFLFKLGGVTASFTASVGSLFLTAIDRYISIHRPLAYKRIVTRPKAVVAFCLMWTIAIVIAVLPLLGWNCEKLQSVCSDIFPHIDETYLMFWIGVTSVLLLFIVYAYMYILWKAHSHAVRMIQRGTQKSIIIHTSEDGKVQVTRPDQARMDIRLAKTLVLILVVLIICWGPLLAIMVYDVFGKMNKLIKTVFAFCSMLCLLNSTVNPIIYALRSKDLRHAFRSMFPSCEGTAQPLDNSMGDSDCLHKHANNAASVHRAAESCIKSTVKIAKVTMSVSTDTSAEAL
Sequence of Cannabinoid receptor 1 (Rattus norvegicus, UniProt P20272) (P20272 whole entry): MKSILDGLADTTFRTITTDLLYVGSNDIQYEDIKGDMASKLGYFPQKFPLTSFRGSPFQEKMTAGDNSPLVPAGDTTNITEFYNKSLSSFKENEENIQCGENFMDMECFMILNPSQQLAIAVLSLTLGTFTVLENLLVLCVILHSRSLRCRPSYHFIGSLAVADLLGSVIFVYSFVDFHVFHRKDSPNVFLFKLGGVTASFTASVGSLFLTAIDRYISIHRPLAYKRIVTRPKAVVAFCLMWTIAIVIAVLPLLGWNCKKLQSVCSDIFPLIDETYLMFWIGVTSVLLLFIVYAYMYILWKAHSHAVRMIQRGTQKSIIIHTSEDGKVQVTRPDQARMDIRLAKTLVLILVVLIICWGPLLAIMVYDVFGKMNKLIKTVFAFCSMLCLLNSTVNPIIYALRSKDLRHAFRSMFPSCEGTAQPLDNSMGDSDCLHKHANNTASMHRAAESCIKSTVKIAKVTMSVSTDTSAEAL
Sequence of Cannabinoid receptor 1 (Rattus norvegicus) (P20272 whole entry): as above

Compound	Activity [1] [%]	Ki (Cannabinoid receptor 2 [2]) [µM]	Ki (Cannabinoid receptor 1 [3]) [µM]	inhibition (Cannabinoid receptor 2 [4]) [%]	IC50 [5] [µM]	inhibition [6] [%]	IC50 [7] [µM]	Ki (Cannabinoid receptor 1 [8]) [µM]	inhibition [9] [%]	inhibition (Cannabinoid receptor 1 [10]) [%]	Activity [11] [%]	inhibition [12] [%]
O=C(Oc1cccc(/C=C2\N=C3SCCCN3C2=O)c1)c1ccc(Cl)cc1	0	> 10	> 10	0	> 10	16	14.3	> 10	24	12	31	
COc1ccccc1/C=C1\N=C2SCCCN2C1=O	0	> 10	> 10	27	> 10	33	> 10	> 10	4	4	12	0
O=C1N=C2SCCCN2/C1=C\C=C\c1ccccc1	9	> 10	> 10	19	> 10	0	> 10	> 10		26	59	2
O=C1/C(=C/c2ccc(-c3ccccc3)cc2)N=C2SCCCCN12	6	5.43	> 10		> 10	0	> 10	> 10	0	-5	30	37
O=C1N2CCSC2=NC1(c1ccccc1)c1ccccc1	12	> 10	> 10	3	> 10	39	> 10	21.1	15		50	12
CN(C)c1ccc(/C=C2\N=C3SCCCN3C2=O)cc1	17	16.6	> 10		> 10	13	> 10	> 10	6	29	20	13
O=C1/C(=C/c2ccc([N+](=O)[O-])cc2)N=C2SCCCN12	0	> 10	> 10	20	> 10	12	> 10	> 10	23	0	39	20
CCCCC/C=C\C/C=C\C/C=C\C/C=C\CCCC(=O)NCC(=O)O [ARACHIDONOYL GLYCINE]		> 10		36	> 10	6	> 10	> 10		43		0
CCOC(=O)C1CN2C(=O)C(c3ccccc3)(c3ccccc3)N=C2S1 (centres undefined)	11	> 10	> 10	0	> 10	10	> 10	> 10	38	2	39	0
O=C1/C(=C/c2ccc(Cl)cc2)N=C2SCCCN12	13	> 10	> 10	23	> 10	35	> 10	> 10	15	25	0	18
O=C1/C(=C/c2ccccc2F)N=C2SCCCN12	6	> 10		0	5.56		> 10	> 10		13	0	17
Cc1ccc(C(=O)Oc2cccc(/C=C3\N=C4SCCCCN4C3=O)c2)cc1	0	2.58	> 10		> 10	32	6.45	> 10	4	35	25	
O=C1/C(=C/c2cccc(OCc3ccccc3Cl)c2)N=C2SCCCN12	8	> 10		9	≥ 10	45	1.65	> 10		0	10	
